# Source: paper PMC2675279 (The Journal of general virology, 2009)
# Test system: splenocytes from BALB/c mice infected with tk--HSV-2
# Assay: IFN-γ ELISPOT, splenocytes after intravaginal tk--HSV-2 infection
# Assay type: cell-based
# Settings: splenocytes from individual BALB/c mice after non-lethal intravaginal infection with live attenuated HSV-2, single peptides at 1 μg mL^-1 (Concanavalin A 2.5 μg mL^-1), means of duplicates
row,Substance,"SFU per 10^6 responder cells, tk--HSV-2 infected mice"
1,YAGRMTYIATGAL [UL47 389-401],43 SFU per 10^6 responder cells
2,Concanavalin A [reference compound],TNTC ^‡
3,HTALATVTLKYAL [UL47 509-521],25 SFU per 10^6 responder cells
4,LLYWPGVRALLGR [UL47 369-381],21 SFU per 10^6 responder cells
